In patent publication US20040038369A1, “Airway-specific trypsin-like enzymes and method of using the same” (priority 2000, published 2004):

What was measured:
[1] = tested on: EGF on surface of H292 cell membrane; assay: Surface antigen analysis (FACS) of EGF on NCI-H292 cell membrane; assay type: cell-based, human; conditions: HAST 300 mU/mL + inhibitor (leupeptin 10 μM, BB1101 5 μM); PBS 10.79, HAST alone 8.33
Experimental: (§1) NCI-H292 cells (purchased from ATCC) were cultured on a 10 cm dish in 10% FCS-containing RPMI-1640 until to reach a confluent state, subjected to the replacement of the culture medium by RPMI-1640 containing 0.1% of BSA, and further cultured for 24 hours. The cultured cells were washed with PBS, treated and floated in PBS containing 5 mM of EDTA at 37° C. for five minutes, and then suspended in 0.1%BSA-containing RPMI-1640 in a density of 1.0×10^7 cells/mL.
(§2) The above-described cell suspension and 0.1% BSA-containing RPMI-1640 containing HAST in a double concentration (600 mU/mL) were mixed with each other in equivalent amounts, respectively, and reacted with each other at 37° C. for 30 minutes (final cell concentration: 5.0×10^6 cells/mL, final HAST concentration: 300 mU/mL). The reaction solution was mixed with ice-cooled 1% FCS-containing PBS in a volume of 5 times that of the reaction solution to stop the reaction, and the treated solution was then supplied for a surface antigen analysis.
(§3) The cells subjected to the prescribed treatments were suspended in 1% FCS-containing PBS in a density of 1.0×10^7 cells/mL. 100 μL of the prepared cell suspension was mixed with a primary antigen (EGF back ground dyeing: 1 μg of normal mouse IgG1 (produced by R & D Corp.), EGF dyeing: 1 μg of an anti-EGF mouse monoclonal antibody (produced by R & D Corp.), HB-EGF back ground dyeing: free from the primary antigen, HB-EGF dyeing: 2 μg of an anti-HB-EGF goat polyclonal antibody (produced by R & D Corp.)) and reacted on ice for 30 minutes. The reaction product was once washed with 5 mL of 1% FCS-containing PBS, mixed with 2 μg of a secondary antigen (EGF back ground dyeing and EGF dyeing: FITC conjugated F(ab′)2 fragment to mouse IgG (produced by Dako Corp.), HB-EGF back ground dyeing and HB-EGF dyeing: Swine Anti-Goat Ig's Fluorescein Conjugate (produced by KPL Corp.)), and then reacted on ice for 30 minutes. The reaction solution was once washed with 5 mL of 1% FCS-containing PBS, and then mixed with Cell Fix (produced by Becton Dickinson Corp.) to immobilize the cells. The expression of the surface antigen was assayed with FACS Calibur (produced by Becton Dickinson Corp.) and analyzed with Cell Quest (produced by Becton Dickinson Corp.). Average fluorescence intensities were shown in the next table as the indicators of expression intensities.
(§4) HAST (600 mU/mL) was reacted with leupeptin (10 μM) or BB1101 (5 μM) in 0.1% BSA-containing RPMI-1640 on ice for 30 minutes, and the reaction solution was mixed with the equivalent amount of a cell suspension preliminarily treated with leupeptin (10 μM) or BB1101 (5 μM) at 37° C. for 30 minutes, and further treated at 37° C. for 30 minutes (final HAST concentration: 300 mU/mL, final leupeptin concentration: 10 μM, final BB1101 concentration: 5 μM, final cell concentration: 5.0×10^6 cells/mL). The reaction solution was mixed with ice-cooled 1% FCS-containing PBS in an amount of five times that of the reaction solution to stop the reaction, and then supplied for the surface antigen analysis.
(§5) The cells subjected to the prescribed treatments were suspended in 1% FCS-containing PBS in a density of 1.0×10^7 cells/mL. […]

[2] = tested on: HB-EGF on surface of H292 cell membrane; assay: Surface antigen analysis (FACS) of HB-EGF on NCI-H292 cell membrane; assay type: cell-based, human; conditions: HAST 300 mU/mL + inhibitor (leupeptin 10 μM, BB1101 5 μM); PBS 8.61, HAST alone 6.26
Experimental: as §1, §2, §3, §4, §5

[3] = tested on: NCI-H292 cells; assay: AB-PAS staining of mucus glycoprotein in NCI-H292 cells; assay type: cell-based, human; conditions: FIG. 1 and 2
Experimental: (§6) NCI-H292 cells (human pulmonary mucoepidermoid tumor cell strain, purchased from ATCC) were suspended in 10% FCS (Fetal Calf Serum)-containing RPMI-1640 (produced by Gibco Corp.), sowed on a Lab-Tek 8 well chamber slide (produced by Nunc Corp.) in a density of 6.0×10^4 cells/cm^2, cultured for 72 hours, subjected to the replacement of the culture solution by RPMI-1640 containing 0.1% of BSA, and further cultured for 24 hours.
On the day of the treatment, the culture solution of each well was replaced by RPMI-1640 (containing 0.1% BSA) containing EGF (5 ng/mL, produced by Becton Dickinson Corp.), HB-EGF (5 ng/mL, produced by R & D Corp.), TGF-α (5 ng/mL, produced by Peprotech Corp.), or PBS to start the treatment. Then, the cells were incubated at 37° C. for 24 hours.
After the prescribed 24 hours treatment, the culture supernatant was removed. The residue was once washed with PBS, mixed with 4% paraformaldehyde/PBS, and then allowed to stand at room temperature for one hour to immobilize the cells. The immobilized cells were twice washed with Milli Q water and then stained with AB-PAS. The staining was carried out according to a book (“All of new dyeing methods” p136-150 (Iyaku Shuppansha)). After staining, the cells were sequentially immersed in 70, 80, and 100% ethanol for five minutes, respectively, to remove water, sealed in an Aquatex (produced by Merck Corp.), and then subjected to the observation of the staining image with an optical microscope. From the results, it was clarified that all of HAST, TGF-α, EGF, and HB-EGF promoted the production of the mucus glycoprotein.
as §6, with “(purchased” for “(human pulmonary mucoepidermoid tumor cell strain, purchased”, “FCS-containing” for “FCS (Fetal Calf Serum)-containing”, “hours. […]” for “hours.”

[4] = biological target: T1, PAR-2 (Homo sapiens, UniProt P55085); assay: Calcium influx in PAR-2-expressing insect cells; assay type: cell-based; conditions: AST 2 units/mL; trypsin, thrombin 0.1 to 10 units/mL; SFLLRNamide, SLIGRL 10 to 100 μM
T1 construct: expressed in transfected cells; host or cells: Sf9 insect cells infected with recombinant baculovirus VL-PAR (pVL1393)
T1 sequence (P55085 26-397): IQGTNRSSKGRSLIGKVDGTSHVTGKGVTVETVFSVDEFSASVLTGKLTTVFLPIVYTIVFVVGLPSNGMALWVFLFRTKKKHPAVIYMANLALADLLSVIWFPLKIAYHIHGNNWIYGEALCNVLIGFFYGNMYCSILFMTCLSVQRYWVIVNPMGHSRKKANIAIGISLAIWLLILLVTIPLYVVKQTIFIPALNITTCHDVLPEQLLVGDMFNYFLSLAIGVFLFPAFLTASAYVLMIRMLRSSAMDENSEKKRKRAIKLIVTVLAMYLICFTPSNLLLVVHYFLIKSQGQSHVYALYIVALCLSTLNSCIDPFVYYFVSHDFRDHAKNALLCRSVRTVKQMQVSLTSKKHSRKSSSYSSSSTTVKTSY
Experimental: (§7) The above-obtained recombinant baculovirus VL-PAR for expressing the PAR was used to infect 1.0×10^7 Sf9 cells sowed on a 75 cm^2 flask at an MOI=2, and was then left and stationally cultured at 27° C. for 40 hours. After the culture, the infected cells were recovered and then subjected to a calcium influx experiment to-confirm the function of the PAR.
(§8) The recovered infected cells (about 5×10^6 cells) were once washed with HEPES-Tyrode buffer solution-Ca^2+ (−) pH 7.4, and then suspended in 5 mL of HEPES-Tyrode buffer solution (containing Fura2-AM, 1 μg/mL) to load the Fura2-AM on the cells at 27° C. for 30 minutes. The suspension was centrifuged at 800 rpm at room temperature for 5 minutes to recover the cells. The cells were twice washed with HEPES-Tyrode buffer solution-Ca^2+ (−) pH 7.4 and then resuspended in 5 mL of HEPES-Tyrode buffer solution-Ca^2+ (−) pH 7.4. The cell suspension was mixed with 5 μL of 1M CaCl2 to give a final concentration of 1 mM CaCl2, and then incubated in a shaded state at room temperature for 5 minutes. The prepared Fura2-AM-loaded infected cells were dispensed into a 96 well plate in a volume of 100 μL/well, further subjected to the dispensation of HEPES-Tyrode buffer solution-C^2+ (+) pH 7.4 in a volume of 80 μL/well, and then assayed with a Fluorescence Drug Screening System (made by Hamamatsu Photonics Co.). Namely, [intensity of 500 nm fluorescent light due to 340 nm exciting light]/[intensity of 500 nm fluorescent light due to 380 nm exciting light] (reflecting the concentration of calcium in the cells) was assayed.

[5] = biological target: T2, PAR-1 (Homo sapiens, UniProt P25116); assay: Calcium influx in PAR-1-expressing insect cells; assay type: cell-based; conditions: AST 2 units/mL; trypsin, thrombin 0.1 to 10 units/mL; SFLLRNamide 10 to 100 μM
T2 construct: expressed in transfected cells; host or cells: Sf9 insect cells infected with recombinant baculovirus VL-PAR (pVL1393)
T2 sequence (P25116 22-425): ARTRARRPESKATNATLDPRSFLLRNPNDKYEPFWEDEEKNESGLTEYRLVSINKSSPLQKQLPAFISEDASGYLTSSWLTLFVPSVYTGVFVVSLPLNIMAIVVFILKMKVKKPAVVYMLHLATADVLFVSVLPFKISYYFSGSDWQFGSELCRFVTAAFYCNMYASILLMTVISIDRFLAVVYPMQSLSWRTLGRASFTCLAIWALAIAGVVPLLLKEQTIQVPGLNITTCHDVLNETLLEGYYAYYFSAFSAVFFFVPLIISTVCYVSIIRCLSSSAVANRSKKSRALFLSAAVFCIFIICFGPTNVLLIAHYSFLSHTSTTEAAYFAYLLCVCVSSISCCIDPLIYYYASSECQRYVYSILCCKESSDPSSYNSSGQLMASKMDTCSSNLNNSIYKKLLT

[6] = biological target: T3, PAR-4 (Homo sapiens, UniProt Q96RI0); assay: Calcium influx in PAR-4-expressing insect cells; assay type: cell-based; conditions: AST 2 units/ml; trypsin, thrombin 0.1 to 10 units/mL
T3 construct: expressed in transfected cells; host or cells: Sf9 insect cells infected with recombinant baculovirus VL-PAR (pVL1393)
T3 sequence (Q96RI0 18-385): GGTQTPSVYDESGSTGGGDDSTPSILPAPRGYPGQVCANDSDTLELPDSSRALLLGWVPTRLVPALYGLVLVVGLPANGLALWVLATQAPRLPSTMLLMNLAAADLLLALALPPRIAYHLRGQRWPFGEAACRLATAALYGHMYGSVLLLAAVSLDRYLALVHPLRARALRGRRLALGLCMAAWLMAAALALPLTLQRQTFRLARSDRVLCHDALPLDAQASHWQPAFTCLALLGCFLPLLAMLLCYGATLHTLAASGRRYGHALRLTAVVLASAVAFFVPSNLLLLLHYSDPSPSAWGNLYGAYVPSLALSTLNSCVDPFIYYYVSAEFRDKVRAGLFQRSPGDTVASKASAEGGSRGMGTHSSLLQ
Experimental: as §7
as §8, with “Namely, [intensity of 500 nm fluorescent light due to 340 nm exciting light]/[intensity of 500 nm fluorescent light due to 380 nm exciting light] (reflecting the concentration of calcium in the cells) was assayed.” left out

Molecule | EGF expression intensity on the surfaces of the cell membranes (average fluorescence intensity) [1] | HB-EGF expression intensity on the surfaces of the cell membranes (average fluorescence intensity) [2] | production of the mucus glycoprotein [3] | Ca2+ influx [4] | also measured
C=CC[C@H](C(=O)NO)[C@@H](CC(C)C)C(=O)N[C@@H](Cc1ccccc1)C(=O)NC [BB01, reference compound] | 7.49 | 6.65 | – | – | –
CC(=O)N[C@@H](CC(C)C)C(=O)N[C@@H](CC(C)C)C(=O)N[C@H](C=O)CCCNC(=N)N [leupeptin, reference compound] | 10.18 | 7.3 | – | – | –
HB-EGF: Heparin-binding EGF-like Growth Factor, EGFR ligand, produced by R & D Corp. [reference compound] | – | – | promoted | – | –
SLIGRL [agonist peptide for PAR-2] | – | – | – | observed | –
TGF-α: Transforming Growth Factor-α, EGFR ligand, produced by Peprotech Corp. [reference compound] | – | – | promoted | – | –
thrombin [reference compound] | – | – | – | observed | Ca2+ influx [5]: observed; Ca2+ influx [6]: observed
